Experimental data reported in ChEMBL document CHEMBL5104234, “Targeted protein degradation using the lysosomal pathway” (RSC Med Chem, 2022).

Columns and labels:
Mus musculus = test: Antidiabetic activity in high fat diet-induced obese db/db mouse assessed as reduction in total lipid concentration at 30 mg/kg,ip administered for 2 weeks; format: functional; parameters: scale not given: the % may be the effect or the level left
[1] = Drug uptake in human HepG2 cells with ASGPR overexpression assessed as fold increase in intracellular uptake; format: ADME, cell-based
[2] = Cytoprotective activity against Down syndrome patient-derived human Detroit 532 cells assessed as increase in mitochondrial membrane potential at 10 uM incubated for 3 days by JC-1 staining based fluorescence microscopy; format: functional; settings: time 3 day

O=C1C(=Cc2cc(Br)c(O)c(Br)c2)c2cc(I)ccc2N1CCCCCCCCCCCOc1ccc2ccccc2c1/N=N/c1ccc(/N=N/c2ccccc2)cc1
Activity (Mus musculus): 62%

N[C@@H](COC1O[C@H](CCP(=O)(O)O)[C@@H](O)[C@H](O)[C@@H]1O)C(=O)O (stereo not given in full)
fold change (FC) [1]: 2

CC(=O)N[C@@H](CSc1nc2c(=O)[nH]c(N)nc2n1Cc1ccc(F)cc1)C(=O)NCCCOCCOCCOCCCCC(=O)C(=O)c1c(-c2ccccc2)[nH]c2ccccc12
Activity [2]: 50%

CC(=O)N[C@@H]1[C@@H](O)[C@@H](O)[C@@H](CO)O[C@@H]1O
fold change (FC) [1]: 16

O=c1cc(-c2ccccc2)c2c(OCCCCCCCCCCOc3ccc4ccccc4c3/N=N/c3ccc(/N=N/c4ccccc4)cc3)cc(O)cc2o1
Activity (Mus musculus): 62%
